For the test, the target named is soluble guanylate cyclase (sGC) (Homo sapiens (Human), UniProt Q02108+Q02153). As to the kind of experiment: sGC-HEK-cGMP assay run with SNP incubation (HEK WC assay). The following applies: for EC50: in the presence of 10 uM SNP. The format is cell-based. Here is the method:
Human embryonic kidney cells (HEK293), endogenously expressing soluble guanylate cyclase (sGC), were used to evaluate the activity of test compounds. Compounds stimulating the sGC receptor should cause an increase in the intracellular concentration of cGMP. HEK 293 cells were seeded in Dulbecco's Modification of Eagle's Medium supplemented with fetal bovine serum (10% final) and L-glutamine (2 mM final) in a 200 μL volume at a density of 1×10^5 cells/well in a poly-D-lysine coated 96 well flat bottom plate and grown overnight at 37° C. Medium was aspirated and cells were washed with 1× Hank's Buffered Saline Salt Solution (200 μL). Cells were then incubated for 15 minutes at 37° C. with 0.5 mM 3-isobutyl-1-methylxanthine (200 μL). Test article and sodium nitroprusside were then added to the assay mixture (2 μL each) and incubated at 37° C. for 10 minutes. After the 10 minute incubation, the assay mixture was aspirated and 0.1M HCl (200 μL) was added to the cells. The plate was incubated at 4° C. for 30 minutes in the 0.1M HCl to stop the reaction and lysed the cells. The plates were then centrifuged at 1,200 g for 5 minutes at room temperature. Supernatants were collected and transferred to a new flat bottom 96 well plate for analysis. Vehicle controls were carried out using DMSO (1%). […] Samples were diluted with an equal volume of 1 M Ammonium Acetate (pH 7) to neutralize samples for better chromatography. […] EC50 values were calculated from concentration-response curves generated with GraphPad Prism Software.

Setting [1] is: read-out: HEK WC Assay (% Emax at 10 μM with 10 uM SNP).
[2] abbreviates: read-out: HEK WC Assay (% Emax at 30 μM with 10 uM SNP).
Setting [3] is: read-out: HEK WC Assay (% Emax at 1 μM with 10 uM SNP).

Results on 35 compounds are retold here after patent US10189809B2, “SGC stimulators” (Ironwood Pharmaceuticals, Inc., priority 2010, dated 2019).

The term EC50 denotes the concentration at which the effect is half-maximal.

Where two headings read alike, the source gives them in different places.

Sequence of soluble guanylate cyclase (sGC) (Q02153 whole entry): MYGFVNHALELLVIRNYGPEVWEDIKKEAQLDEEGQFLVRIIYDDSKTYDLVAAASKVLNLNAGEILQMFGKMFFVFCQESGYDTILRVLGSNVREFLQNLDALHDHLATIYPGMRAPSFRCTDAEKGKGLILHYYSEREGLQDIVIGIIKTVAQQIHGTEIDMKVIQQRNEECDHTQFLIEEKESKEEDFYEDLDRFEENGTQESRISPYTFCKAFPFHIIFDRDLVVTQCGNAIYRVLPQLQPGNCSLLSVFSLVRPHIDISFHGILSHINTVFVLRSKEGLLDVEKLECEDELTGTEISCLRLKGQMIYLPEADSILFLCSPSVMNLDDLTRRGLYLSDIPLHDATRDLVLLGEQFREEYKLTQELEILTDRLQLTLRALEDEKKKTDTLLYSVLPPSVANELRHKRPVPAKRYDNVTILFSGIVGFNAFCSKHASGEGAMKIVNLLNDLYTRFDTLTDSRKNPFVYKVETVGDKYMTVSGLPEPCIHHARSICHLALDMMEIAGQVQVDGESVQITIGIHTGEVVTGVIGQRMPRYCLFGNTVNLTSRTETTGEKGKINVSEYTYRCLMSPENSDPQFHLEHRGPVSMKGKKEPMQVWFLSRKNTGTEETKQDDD
Sequence of soluble guanylate cyclase (sGC) (Q02108 whole entry): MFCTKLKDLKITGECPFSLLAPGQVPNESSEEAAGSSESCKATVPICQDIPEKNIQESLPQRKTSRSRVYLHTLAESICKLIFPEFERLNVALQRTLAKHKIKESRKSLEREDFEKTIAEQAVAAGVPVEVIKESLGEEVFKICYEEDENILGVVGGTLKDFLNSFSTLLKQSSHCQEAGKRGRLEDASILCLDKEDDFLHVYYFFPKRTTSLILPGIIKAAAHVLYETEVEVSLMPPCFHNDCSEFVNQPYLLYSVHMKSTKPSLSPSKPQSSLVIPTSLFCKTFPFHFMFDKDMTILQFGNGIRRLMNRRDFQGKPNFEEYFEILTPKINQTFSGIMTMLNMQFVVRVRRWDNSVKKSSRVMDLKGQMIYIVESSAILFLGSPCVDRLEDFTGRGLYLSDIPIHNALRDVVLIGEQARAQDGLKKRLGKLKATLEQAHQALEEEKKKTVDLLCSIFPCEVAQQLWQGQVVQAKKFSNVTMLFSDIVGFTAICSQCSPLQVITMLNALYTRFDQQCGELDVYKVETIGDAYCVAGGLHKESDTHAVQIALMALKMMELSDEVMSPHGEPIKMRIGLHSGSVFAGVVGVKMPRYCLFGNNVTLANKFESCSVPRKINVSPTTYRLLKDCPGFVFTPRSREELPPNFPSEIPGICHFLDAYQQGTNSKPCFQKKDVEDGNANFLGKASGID

As to `CS(=O)(=O)c1ccc(-c2cc(-c3ccccn3)nn2Cc2ccccc2F)nc1` [Compound I-73], the Emax at 10 µM (read-out: HEK WC Assay (% Emax at 10 μM/with 10 uM SNP)) fell in the range of 0 to 10%. In addition, for the setting “read-out: HEK WC Assay (% Emax at 30 μM/with 10 uM SNP)”, the Emax at 30 µM lay in the range of 0 to 10%.
Regarding `CS(=O)(=O)Nc1cnc(-c2cc(-c3ccon3)n(Cc3ccccc3F)n2)nc1N` [Compound I-145], the Emax runs as follows: under setting [1], 20 to 40%; under setting [2], 20 to 40%.
With `CC(C)(O)c1cnc(-c2cc(-c3ncco3)n(Cc3ccccc3F)n2)nc1N` [Compound I-146], the Emax under setting [1] is 40 to 60% and the Emax under setting [2] was in the range of 40 to 60%.
Take `N#Cc1cnc(-c2cc(-c3ncco3)n(Cc3ccccc3F)n2)nc1O` [Compound I-155]: the 50% effective concentration (EC50) was < 20 µM. Further, the Emax under setting [1] fell in the range of 40 to 60%. For the same compound, under setting [2], the Emax lay in the range of 60 to 80%.
Regarding `Nc1nc(-c2cc(-c3ccon3)n(Cc3ccccc3F)n2)ncc1NC(=O)C1CCCCC1` [Compound I-157], the Emax under setting [1] fell in the range of 100 to 120% and the Emax under setting [2] was 80 to 100%.
With `CC(C)(Oc1ccccc1)C(=O)Nc1cnc(-c2cc(-c3ccon3)n(Cc3ccccc3F)n2)nc1N` [Compound I-230], the EC50 lay in the range of 60 to 100 µM. In addition, under setting [3], the Emax was 10 to 20%. In addition, under setting [1], the Emax was in the range of 20 to 40%. The Emax under setting [2] lay within 20 to 40%.
With `O=S(=O)(c1cc(Cl)ccc1Cl)c1cnc(-c2cc(-c3ccon3)n(Cc3ccccc3F)n2)nc1O` [Compound I-242], the EC50 lay in the range of 60 to 100 µM. Besides, the Emax under setting [3] lay in the range of 10 to 20%. For the same compound, the Emax under setting [1] lay in the range of 20 to 40%. The Emax under setting [2] lay within 20 to 40%.
With `C=CC(C)(C)C(=O)Nc1cnc(-c2cc(-c3ccon3)n(Cc3ccccc3F)n2)nc1N` [Compound I-246], the EC50 was < 20 µM. Moreover, under setting [3], the Emax lay in the range of 60 to 80%. The Emax under setting [1] lay in the range of 100 to 120%. Also, the Emax under setting [2] is 100 to 120%.
With `CCC(C)(C)C(=O)Nc1cnc(-c2cc(-c3ccon3)n(Cc3ccccc3F)n2)nc1N` [Compound I-247], the EC50 was < 20 µM. In addition, under setting [3], the Emax was in the range of 20 to 40%. For the same compound, the Emax under setting [1] was 60 to 80%. Besides, under setting [2], the Emax was in the range of 80 to 100%.
Take `O=c1cc(O)oc2nc(-c3cc(-c4ccon4)n(Cc4ccccc4F)n3)nc(O)c12` [Compound I-248]: the EC50 was in the range of 600 to 900 µM. The Emax under setting [3] is 0 to 10%. The Emax under setting [1] was in the range of 0 to 10%. For the same compound, under setting [2], the Emax fell in the range of 0 to 10%.
As for `CN(C)/C=N/c1cnc(-c2cc(-c3ccon3)n(Cc3ccccc3F)n2)nc1` [Compound I-249, N′-(2-(1-(2-fluorobenzyl)-5-(isoxazol-3-yl)-1H-pyrazol-3-yl)pyrimidin-5-yl)-N,N-dimethylformimidamide], the EC50 is < 20 µM. Further, the Emax under setting [3] fell in the range of 20 to 40%. Moreover, the Emax under setting [1] was 40 to 60%. Also, the Emax under setting [2] lay within 60 to 80%.
For the compound `CC(C)(C)[S+]([O-])Nc1cnc(-c2cc(-c3ccon3)n(Cc3ccccc3F)n2)nc1N[S+]([O-])C(C)(C)C` (centres unmarked) [Compound I-250], the 50% effective concentration (EC50) lay in the range of 100 to 300 µM. The Emax under setting [3] fell in the range of 0 to 10%. For the same compound, the Emax under setting [1] was 10 to 20%. The Emax under setting [2] lay in the range of 10 to 20%.
With `CC(C)(C)S(=O)(=O)Nc1cnc(-c2cc(-c3ccon3)n(Cc3ccccc3F)n2)nc1N` [Compound I-251], the EC50 fell in the range of 20 to 40 µM. Also, the Emax under setting [3] was 10 to 20%. Further, the Emax under setting [1] lay in the range of 20 to 40%. Moreover, the Emax under setting [2] fell in the range of 20 to 40%.
As for `CCCC(F)(F)C(=O)Nc1cnc(-c2cc(-c3ccon3)n(Cc3ccccc3F)n2)nc1N` [Compound I-252], the EC50 is < 20 µM. In addition, the Emax under setting [3] was 40 to 60%. The Emax under setting [1] lay in the range of 40 to 60%. Moreover, the Emax under setting [2] was 60 to 80%.
For `C=C(C)C(=O)Nc1cnc(-c2cc(-c3ccon3)n(Cc3ccccc3F)n2)nc1N` [Compound I-258], the EC50 is < 20 µM. For the same compound, the Emax under setting [3] fell in the range of 40 to 60%. Moreover, under setting [1], the Emax lay in the range of 60 to 80%. Besides, the Emax under setting [2] lay within 60 to 80%.
As to `Nc1nc(-c2cc(-c3ccon3)n(Cc3ccccc3F)n2)ncc1N1Cc2ccccc2C1=O` [Compound I-259], the EC50 is < 20 µM. Moreover, under setting [3], the Emax lay within 20 to 40%. Moreover, the Emax under setting [1] is 60 to 80%. Also, the Emax under setting [2] lay within 60 to 80%.
Turning to `CC1(C(=O)Nc2cnc(-c3cc(-c4ccon4)n(Cc4ccccc4F)n3)nc2N)CC1(Cl)Cl` (centres unmarked) [Compound I-260], the EC50 is < 20 µM. Further, the Emax under setting [3] is 80 to 100%. Besides, the Emax under setting [1] was 100 to 120%. For the same compound, the Emax under setting [2] was in the range of 80 to 100%.
For `Oc1cc(O)nc(-c2cc(-c3ccon3)n(Cc3ccccc3F)n2)n1` [Compound I-261], the EC50 lay within 300 to 600 µM. For the same compound, the Emax under setting [3] lay within 0 to 10%. Further, under setting [1], the Emax lay within 0 to 10%. Also, the Emax under setting [2] lay within 0 to 10%.
For `Nc1cnc(-c2cc(-c3ccon3)n(Cc3ccccc3F)n2)nc1` [Compound I-262], the EC50 is < 20 µM. The Emax under setting [3] fell in the range of 20 to 40%. For the same compound, under setting [1], the Emax lay in the range of 60 to 80%. In addition, under setting [2], the Emax is 60 to 80%.
For the compound `[2H]C([2H])([2H])C(=O)Nc1cnc(-c2cc(-c3ccon3)n(Cc3ccccc3F)n2)nc1N` [Compound I-263], the EC50 was < 20 µM. Moreover, the Emax under setting [3] is 40 to 60%. Under setting [1], the Emax lay in the range of 100 to 120%. The Emax under setting [2] lay in the range of 100 to 120%.
In the case of `CC(C)(C)C(=O)Nc1cnc(-c2cc(-c3ccon3)n(Cc3ccccc3F)n2)nc1` [Compound I-264], the EC50 is 300 to 600 µM. Besides, under setting [3], the Emax was 20 to 40%. The Emax under setting [1] lay within 40 to 60%. Besides, under setting [2], the Emax lay in the range of 0 to 10%.
Take `CC(C)(CO)C(=O)Nc1cnc(-c2cc(-c3ccon3)n(Cc3ccccc3F)n2)nc1N` [Compound I-265]: the EC50 is < 20 µM. Further, the Emax under setting [3] lay in the range of 40 to 60%. The Emax under setting [1] fell in the range of 60 to 80%. In addition, under setting [2], the Emax fell in the range of 80 to 100%.
For `Oc1nc(-c2cc(-c3ccon3)n(Cc3ccccc3F)n2)ncc1Cl` [Compound I-266], in that order: < 20 µM, 20 to 40%, 60 to 80% and 60 to 80%.
`Fc1ccccc1Cn1nc(-c2ncc(F)c(S)n2)cc1-c1ccon1` [Compound I-267]: the Emax fell in the range of 20 to 40% under setting [3], 60 to 80% under setting [1] and 80 to 100% under setting [2].
Consider `CC(C)(CCl)C(=O)Nc1cnc(-c2cc(-c3ccon3)n(Cc3ccccc3F)n2)nc1N` [Compound I-268], for which the EC50 was < 20 µM. Besides, the Emax under setting [3] lay in the range of 40 to 60%. For the same compound, the Emax under setting [1] was in the range of 100 to 120%. Besides, the Emax under setting [2] fell in the range of 80 to 100%.
For the compound `Nc1nc(-c2cc(-c3ncco3)n(Cc3ccccc3F)n2)ncc1N=C(c1ccccc1)c1ccccc1` [Compound I-269], the EC50 lay in the range of 100 to 300 µM. Under setting [3], the Emax was in the range of 0 to 10%. For the same compound, the Emax under setting [1] was 0 to 10%. Besides, the Emax under setting [2] is 10 to 20%.
For the compound `CC(C)(C(=O)Nc1cnc(-c2cc(-c3ccon3)n(Cc3ccccc3F)n2)nc1N)n1cncn1` [Compound I-270], the EC50 is < 20 µM. The Emax under setting [3] is 10 to 20%. For the same compound, the Emax under setting [1] was in the range of 40 to 60%. Moreover, the Emax under setting [2] was 60 to 80%.
For `O=S(=O)(c1ccccc1)c1cnc(-c2cc(-c3ncco3)n(Cc3ccccc3F)n2)nc1O` [Compound I-271] the same measures were < 20 µM, 40 to 60%, 60 to 80% and 80 to 100%.
As for `Fc1ccccc1Cn1nc(-c2nc(Cl)cc(C(F)(F)F)n2)cc1-c1ccon1` [Compound I-273], the Emax is 20 to 40% under setting [1] and 20 to 40% under setting [2].
As for `CN(C)C(=O)Oc1cnc(-c2cc(-c3ccon3)n(Cc3ccccc3F)n2)nc1` [Compound I-274], the Emax lay within 20 to 40% under setting [3], 60 to 80% under setting [1] and 60 to 80% under setting [2].
Turning to `O=[N+]([O-])c1c(O)nc(-c2cc(-c3ccon3)n(Cc3ccccc3F)n2)nc1O` [Compound I-282], the EC50 was in the range of 900 to 1200 µM. Moreover, under setting [3], the Emax was 0 to 10%. The Emax under setting [1] was 0 to 10%. The Emax under setting [2] fell in the range of 0 to 10%.
As for `Nc1ccnc(-c2cc(-c3ccco3)n(Cc3ccccc3F)n2)n1` [Compound I-284], the Emax by setting is: under setting [1], 60 to 80%; under setting [2], 60 to 80%.
With `Fc1ccccc1Cn1nc(-c2ccccn2)cc1-n1cccn1` [Compound I-286], the Emax by setting is: under setting [1], 0 to 10%; under setting [2], 10 to 20%.
With `Fc1ccccc1Cn1nc(-c2nc(Cl)cc(-c3cccnc3)n2)cc1-c1ccon1` [Compound I-301], the EC50 is < 20 µM. In addition, the Emax under setting [1] was 40 to 60%. Moreover, the Emax under setting [2] was in the range of 60 to 80%.
As for `CC(C)(C)OC(=O)n1c(=O)[nH]c2nc(-c3cc(-c4ccon4)n(Cc4ccccc4F)n3)ncc21` [Compound I-312], the EC50 lay within 40 to 60 µM. Also, under setting [3], the Emax is 20 to 40%. Moreover, under setting [1], the Emax lay within 20 to 40%. Under setting [2], the Emax is 20 to 40%.
